Assay results reported in patent US20260209260A1, “VECTORIZED NHC IRIDIUM(III) COMPLEXES AND USE THEREOF IN PHOTODYNAMIC THERAPY AND/OR DIAGNOSTIC” (CENTRE NATIONAL DE LA RECHERCHE SCIENTIFIQUE, priority 2022, published 2026).
Read-outs that look alike come from different tables or passages of the source.

What was measured:
[1] = UV/Vis absorption spectra; assay type: physicochemical; settings: room temperature; for λmax (nm) ε (M^−1 · cm^−1): air-saturated CH2Cl2 or CH2Cl2/MeOH (1:1), 50 μM, ε in brackets, sh = shoulder; for maximum absorption, lowest-lying bands in the visible region over 360 nm: CH2Cl2 or CH2Cl2/MeOH (1:1)
Experimental: UV/Vis absorption spectra were recorded at RT on solutions contained in quartz cuvettes (optical pathlength 1 cm, Hellma®) with a PerkinElmer® UV/VIS/NIR spectrophotometer Lambda 950 and a PerkinElmer® detector UV/VIS/NIR Accessory 2D Detector Module.

[2] = Luminescence emission spectra and quantum yield; assay type: physicochemical; settings: for ΦP emission phosphorescence quantum yield: room temperature, reference POPOP in hexane or rhodamine B in ethanol
Experimental: Fluorescence and phosphorescence emission spectra were obtained with a HORIBA JOBIN YVON, fluromax-4 and spectrofluorometer.
Luminescence quantum yields were measured according to the method of Demas and Crosby, on solution samples at RT. The quantum yield is defined as: […]
Where ΦP is the quantum yield of the sample, ΦR is the know quantum yield of the reference standard. […].
The luminescence spectra of vectorized iridium(III) complexes were determined in CH2Cl2 at room temperature (Table 3).

[3] = test system: NIH-3T3 fibroblast cells (non-tumor); test: Cell viability assay (MTT), dark and blue light; assay type: cell-based, Murine; settings: for Photosensitizing index (PI): NIH-3T3, dark vs blue light; for GI50: read-out: GI50
Experimental: Cells were grown in humidified incubators at 37° C. in 5% CO2. Murine MC3T3 osteoblast and NIH-3T3 fibroblast cells-used as non-tumor cell models-were cultured in a-MEM medium and DMEM medium supplemented with 10% fetal bovine serum (FBS) and 1% Penicillin/Streptomycin (P/S) antibiotics, respectively. Human T24 bladder, MGHU3 bladder, Scaber bladder, A549 lung, MCF7 breast, MiaPaCa2 pancreas cancer cells were cultured in DMEM medium supplemented with 10% FBS and 1% P/S antibiotics. […] Human Hela cervix and HepG2 liver cancer cells were cultured EMEM medium supplemented with 10% FBS and 1% P/S antibiotics.
(§1) MTT reagent (3-(4,5-dimethylthiazol-2-yl)-2,5-diphenyltetrazolium bromide) was used to determine cell death as originally described by Mosmann. Briefly, cells were seeded from 5,000 to 10,000 cells/well in 24-well plates (1 mL) depending on the cell type and allowed to attach overnight. The complexes were prepared in DMSO. The concentration of the complexes was calculated based on the elemental composition of the complexes determined by the elemental analyses. All cell viability experiments were carried out with a fixed concentration of 0.1% (v/v) DMSO. After 72 h of treatment, cells were incubated at 37° C. and 5% CO2 with 25 μL of MTT solution (5 mg/ml; Sigma-Aldrich) in 24-well plates for 3 to 4 h. After solubilization with 500 μL of DMSO, formazan was quantified spectrophotometrically with a microplate reader at 570 nm absorbance (ClarioSTAR, BMG LabTech). […] All the results were calculated from data obtained in at least three independent experiments performed in triplicate.
(§2) Two sets of experiments were conducted in parallel for each complex to be studied:
(§3) 1. The cells were incubated with the different complexes (in the dark) for 72 h.
(§4) 2. The cells were incubated for 8 h with the different complexes (in the dark), then irradiated for 10 min, followed by an incubation in the dark up to 72 h.

[4] = Lipophilicity: octanol-water partition coefficient, shake-flask method
Experimental: The octanol-water partition coefficients (P) of all the complexes were determined using a shake-flask method^8. Water (100 mL, distilled after milli-Q purification) and n-octanol (100 mL, Sigma Aldrich, ACS spectrophotometric grade, ≥99%) were shaken together for 24 h to allow saturation of both phases. Stock solutions of the compounds ([…]) were prepared in the aqueous phase. Aliquots (2 mL) of each of these stock solutions were then added to an equal volume of the n-octanol phase. The resultant biphasic solution was mixed for 15 min and then centrifuged (3000 tr/min, 5 min) to separate the phases. The concentrations of the complex in the organic and aqueous phases were then determined using UV absorbance spectroscopy (260 nm). The blank is the water saturated with n-octanol. Log P was defined as logarithm of the ratio of the concentrations of the complex in the organic and aqueous phases (values reported are the means of at least three separated determinations).
The Log P values have been determined by a classical shake-flask method.

[5] = test system: PC-3 prostate cancer cells (PSMA-negative); test: Cell viability assay (MTT), dark and blue light; assay type: cell-based, Human; settings: for Photosensitizing index (PI): PC3, dark vs blue light; for GI50: read-out: GI50
Experimental: Cells were grown in humidified incubators at 37° C. in 5% CO2. Murine MC3T3 osteoblast and NIH-3T3 fibroblast cells-used as non-tumor cell models-were cultured in a-MEM medium and DMEM medium supplemented with 10% fetal bovine serum (FBS) and 1% Penicillin/Streptomycin (P/S) antibiotics, respectively. Human T24 bladder, MGHU3 bladder, Scaber bladder, A549 lung, MCF7 breast, MiaPaCa2 pancreas cancer cells were cultured in DMEM medium supplemented with 10% FBS and 1% P/S antibiotics. Human ASPC-1 pancreas, PC-3 prostate, DU-145 prostate, C4-2B prostate and 22rV1 prostate cancer cells were cultured in RPMI medium supplemented with 10% FBS and 1% P/S antibiotics. Human Hela cervix and HepG2 liver cancer cells were cultured EMEM medium supplemented with 10% FBS and 1% P/S antibiotics.
as §1
Irradiation was conducted using an in-house device, a series of blue light LEDs selected according to the absorption spectra of the compounds at 458 nm wavelength with an emitted power of 9.6 Watts. The light fluence was measured at 458 nm with an optical power meter Thorlabs PM100A at different distances between the cell layer and the light source (5 and 10 cm).
as §2, §3, §4

[6] = Emission lifetime measurement; assay type: physicochemical
Experimental: Fluorescence lifetime measurements were performed by an Edinburgh FLS920 spectrofluorimeter equipped with a TCC900 card for data acquisition in time-correlated single-photon counting experiments (0.5 ns time resolution) with a D2 lamp and an LDH—P-C-405 pulsed diode laser. The estimated experimental error is 2 nm on the band maximum (5% on the lifetime, 10% on the fluorescence quantum yield).
The emission lifetimes of biotin-vectorized complexes (I-a) to (I-l) range from 138 ns to 411 ns, among them, the lifetime of biotin-vectorized complexes (I-c), (I-e), (I-k) are 411, 224, and 322 ns respectively. The emission lifetimes of FTS-vectorized complexes (II-a) to (II-l) range from 167 ns to 486 ns, among them, the lifetime of FTS-vectorized complexes (II-c) and (II-k) are 319 and 486 ns respectively. The emission lifetimes of PSMA-vectorized complexes (III-a) to (III-l) are in the range of 159-649 ns, among them, the lifetime of complexes (III-a) and (III-k) were 248 and 649 ns, respectively. The emission lifetimes of Fc-vectorized complexes (IV-a) to (IV-l) are in the range of 178-228 ns.

[7] = n-octanol/water, shake-flask, mean of at least three determinations

SMILES	λmax (nm) ε (M^−1 · cm^−1) [1]	λem ([2]; CH2Cl2, room temperature, λexc 365 nm or 470 nm)	ΦP emission phosphorescence quantum yield [2]	Photosensitizing index (PI) [3]	GI50 ([3]; NIH-3T3, dark)	Log P [4]	SI (vs NIH-3T3) ([5]; PC3, blue light)	SI (vs NIH-3T3) ([5]; PC3, dark)	Photosensitizing index (PI) [5]	GI50 ([5]; PC3, dark)	τ1 emission lifetime [6]	maximum absorption, lowest-lying bands in the visible region over 360 nm [1]	GI50 ([3]; NIH-3T3, blue light)	Log P [4, 7]	SI (vs NIH-3T3) PC-3 Blue ([5]; blue light 458 nm)
F[P-](F)(F)(F)(F)F.O=C(NCCCn1cc[n+]2[c]1[Ir-3]13([c]4ccccc4-c4ccc5ccccc5[n+]41)([c]1ccccc1-c1ccc4ccccc4[n+]13)[n+]1ccccc1-2)[c-]1cccc1.[Fe+2].c1cc[cH-]c1 [IV-g]	334 (17135), 436 (4150) nm (M^−1 · cm^−1)	579 nm	0.02%	3.3	11.8 µM	1.42 ± 0.06	13.7	7.9	5.8	1.5 µM	214 ns				
COC(=O)c1ccc2[c](c1)[Ir-3]13([c]4cc(C(=O)OC)ccc4-c4cccc[n+]41)([c]1n(CCCNC(=O)c4ccccc4SC/C=C(\C)CC/C=C(\C)CCC=C(C)C)cc[n+]1-c1cccc[n+]13)[n+]1ccccc1-2.F[P-](F)(F)(F)(F)F [II-c]	310 (sh) (21710), 355 (5105), 398 (3925) nm (M^−1 · cm^−1)		4.6%			1.08 ± 0.01					319 ns				
Cc1ccc2[c](c1)[Ir-3]13([c]4cc(C)ccc4-c4cccc[n+]41)([c]1n(CCCNC(=O)[c-]4cccc4)cc[n+]1-c1cccc[n+]13)[n+]1ccccc1-2.F[P-](F)(F)(F)(F)F.[Fe+2].c1cc[cH-]c1 [IV-b]	308 (sh) (27820), 379 (8620) nm (M^−1 · cm^−1)		0.03%	1.1	13.9 µM			16.4	2.2	0.85 µM	197 ns	around 380 nm	13.2 µM	1.63 ± 0.02	33.8
F[P-](F)(F)(F)(F)F.O=C(CCCC[C@@H]1SC[C@@H]2NC(=O)N[C@@H]21)NCCCn1cc[n+]2[c]1[Ir-3]13([c]4ccccc4-c4ccc(C(=O)O)c[n+]41)([c]1ccccc1-c1ccc(C(=O)O)c[n+]13)[n+]1ccccc1-2 [I-f]														−0.68 ± 0.07	
COC(=O)c1cccc2[c]1[Ir-3]13([c]4c(C(=O)OC)cccc4-c4cccc[n+]41)([c]1n(CCCNC(=O)c4ccccc4SC/C=C(\C)CC/C=C(\C)CCC=C(C)C)cc[n+]1-c1cccc[n+]13)[n+]1ccccc1-2.F[P-](F)(F)(F)(F)F [II-d]	372 (4535) nm (M^−1 · cm^−1)		0.9%			1.40 ± 0.02					201 ns	around 370 nm			
CC(C)=CCC/C(C)=C/CC/C(C)=C/CSc1ccccc1C(=O)NCCCn1cc[n+]2[c]1[Ir-3]13([c]4ccccc4-c4cccc[n+]41)([c]1ccccc1-c1cccc[n+]13)[n+]1ccccc1-2.F[P-](F)(F)(F)(F)F [II-a]	308 (sh) (14540), 380 (4505) nm (M^−1 · cm^−1)		0.5%			1.70 ± 0.08					210 ns	around 380 nm			
CC(C)=CCC/C(C)=C/CC/C(C)=C/CSc1ccccc1C(=O)NCCCn1cc[n+]2[c]1[Ir-3]13([c]4cc(C)ccc4-c4cccc[n+]41)([c]1cc(C)ccc1-c1cccc[n+]13)[n+]1ccccc1-2.F[P-](F)(F)(F)(F)F [II-b]	306 (sh) (15875), 382 (4560) nm (M^−1 · cm^−1)		0.4%			1.68 ± 0.02					167 ns	around 380 nm			
F[P-](F)(F)(F)(F)F.O=C(O)c1ccc2[n+](c1)[Ir-3]13([c]4ccccc4-2)([c]2ccccc2-c2ccc(C(=O)O)c[n+]21)[c]1n(CCCNC(=O)[c-]2cccc2)cc[n+]1-c1cccc[n+]13.[Fe+2].c1cc[cH-]c1 [IV-f]	304 (sh) (22560), 410 (4150) nm (M^−1 · cm^−1)		0.12%								202 ns			1.08 ± 0.03	
